Laboratory results from patent publication US8314255B2, “Use of phthalimide and/or sulphonamide derivatives in the treatment of diseases which require reducing the TNF- α levels and an exogenous source of nitric oxide, phthalimide derivatives, sulphonamide derivatives, and a method for obtaining a sulphonamide derivative” (priority 2007, dated 2012).

Legend:
[1] = test system: Salmonella typhimurium TA102; assay: AMES test, mutagenic evaluation in Salmonella typhimurium TA102 strain with/without metabolic activation (S9); format: cell-based
Method: The procedure was firstly developed by (MARON, D. M. and AMES, B. N. Mut. Res. v. 113, pp. 173-215, 1983)
For this assay, Salmonella typhimurium TA100 and TA102 strains from the mutagenicity laboratory of the “Faculdade de Ciências Farmacêuticas—UNESP Araraquara” were used. Such strains have the following characteristics: (AMES, 1983)
The positive controls are mutagenic compounds specific for each strain and test condition, with 25 μL/plate of sodium azide (1.25 μg/plate) and 100 μL of mitomycin (0.5 μg/plate) being the controls for TA100 and TA102, respectively, in the absence of metabolic activation. For assays with metabolic activation, the positive control for TA100 is 50 μL 2-antramine (1.25 μg/plate) and for TA102 it is 50 μL 2-aminofluorene (1.25 μg/plate).
The preincubation method was used.
In laminar flow, Salmonella typhimurium (TA100 and TA 102) strains were inoculated individually with a platinum loop, in the respective nutrient broths and maintained at 37° C., under constant stirring (160 rpm) during 14 hours, in order to achieve a density of 1 to 2×10^9 bacteria/mL.
Different concentrations of the compounds were added into 100 μL of 0.2M phosphate buffer pH 7.4 (or 500 μL of the mixture S9 in metabolic activation assays) and incubated for 20-30 minutes at 37° C. Solutions containing the compounds had DMSO as the solvent. Thereafter, 2 mL of top agar supplemented with traces of histidine and biotin was added, homogenized and plated in glycosylated minimum medium. After solidification of the top agar, the plates were incubated for 48 hours at a 37° C. Then, the counting of the number of revertant colonies per plate was performed. All tested concentrations, positive and negative controls were run in triplicate.
After 48 hours, the revertant colonies were counted manually, and the protoCOL Colony Counter Version 3.15.630 (1998-2001) SYNBIOSIS LTD system was used for the positive control.
The final data obtained from the assay was analyzed using the statistical software Salanal (Salmonella Assay Analysis) version 1.0 from the Research Triangle Institute, RTP, North Carolina, USA. Such software allows the dose-response effect to be evaluated by means of analysis of variance (ANOVA-test F) computations between the measurement of the number of revertants at the different tested concentrations (doses) and the negative control, followed by a linear regression. The software model chosen for analyzing the data was Bernstein's (BERNSTEIN, L. et al. Mutat. Res. v. 97, p. 267-281, 1982). The slope of the straight line from the linear portion of the dose-response curve is also provided by this software and corresponds to the number of revertants induced per measurement unit of the analyzed sample.
From the results, the mutagenicity ratio (MR) was computed for each analyzed dose from each compound. MR is given by the following equation:
MR=average number of revertants per test plate (spontaneous+induced revertants) […] average number of revertants per plate of the negative control (spontaneous revertants)
The spontaneous growing means that the number of revertants which developed on the plate, regardless of being induced or not, wherein values higher or equal to 2 are considered as a positive response (VALENT, G. V. et al. Env. Toxicol. Water Quality. v. 8, p. 371-381, 1993).
The mutagenicity test with metabolic activation system was performed with a microsomal fraction S9 (S9 mix) prepared from a liver homogenizate from Sprague Dawley rats, previously treated with Aroclor 1254, acquired in the freeze-dried form.
The procedure for this assay is the same, however, instead of the buffer, 500 μL of the S9 mixture should be added.
The S9 mixture has a viability of 4 hours from preparation when put on ice. The plates are then incubated for 48 hours at 37° C. After the required time has elapsed, the counting of the revertant colonies was carried out. All tested concentrations, positive and negative controls were run in triplicate.

[2] = test system: mouse ear edema induced by capsaicin; assay: Mouse ear edema assay induced by capsaicin; format: in vivo; settings: 300 μmol/Kg i.p., capsaicin 250 μg/ear 1 hour after administration
Method: This assay is characterized by an acute inflammatory response of the ear, with development of edema, and it was performed in order to evaluate the anti-inflammatory activity of the synthesized compounds.
In this assay, indomethacin was used as a control at 100 μmol/Kg, and the phthalimide derivatives were firstly evaluated at 300 μmol/Kg via i.p. From table 4, it can be observed that compounds IC and IE show an ear edema inhibition percentage higher than 64%. […] The other compounds, however, show a similar activity when compared to indomethacin (FIG. 01), taking into consideration the standard error.
This assay was performed using Swiss mice from both genders weighing from 18 to 30 grams. The animals were fasted for 8 hours with free access to water. This assay consists in locally administering (right ear) 20 μl of a capsaicin solution (250 μg/ear) diluted in acetone, 1 hour after the i.p. administration (diluted in 0.5% gum arabic). The left ear (control) received the carrier in which capsaicin was diluted (acetone) and the right ear received capsaicin. This assay is characterized by an acute inflammatory response of the ear, with development of edema. The animals were sacrificed and their ears were weighted to obtain the inflammation index. A biopsy (8 mm in diameter) of the ear was carried out. Next, the weights of the inflamed ears were compared against the weights of the contralateral ear (control ear) which were not treated with the phlogistic agent. The edema inhibition percentage was calculated by subtracting the ear treated with the carrier by that treated with capsaicin from each group of animals treated with the test substances, and then it was divided by the difference between the groups of the irritating agents and the control groups.

SMILES: Nc1ccc(S(=O)(=O)NO)cc1 [Compound IIA, 4-amino-N-hydroxybenzenesulphonamide]
- mutagenicity ratio (MR) ([1]; TA 102, +S9, 0.98 μmol/plate): 1.03
- number of revertants per plate ([1]; TA 102, +S9, 0.98 μmol/plate): 385 ± 33.1 revertants/plate
- mutagenicity ratio (MR) ([1]; TA 102, +S9, 1.96 μmol/plate): 0.87
- number of revertants per plate ([1]; TA 102, +S9, 1.96 μmol/plate): 323 ± 5.54 revertants/plate
- mutagenicity ratio (MR) ([1]; TA 102, +S9, 3.92 μmol/plate): 1.13
- number of revertants per plate ([1]; TA 102, +S9, 3.92 μmol/plate): 423.7 ± 22 revertants/plate
- mutagenicity ratio (MR) ([1]; TA 102, +S9, 7.85 μmol/plate): 1.03
- number of revertants per plate ([1]; TA 102, +S9, 7.85 μmol/plate): 387 ± 14.4 revertants/plate
- mutagenicity ratio (MR) ([1]; TA 102, +S9, 15.7 μmol/plate): 0.8
- number of revertants per plate ([1]; TA 102, +S9, 15.7 μmol/plate): 300 ± 4.9 revertants/plate
- mutagenicity ratio (MR) ([1]; TA 102, −S9, 0.98 μmol/plate): 1.12
- number of revertants per plate ([1]; TA 102, −S9, 0.98 μmol/plate): 222 ± 12 revertants/plate
- mutagenicity ratio (MR) ([1]; TA 102, −S9, 1.96 μmol/plate): 1.22
- number of revertants per plate ([1]; TA 102, −S9, 1.96 μmol/plate): 241 ± 13 revertants/plate
- mutagenicity ratio (MR) ([1]; TA 102, −S9, 3.92 μmol/plate): 1.27
- number of revertants per plate ([1]; TA 102, −S9, 3.92 μmol/plate): 251 ± 19.2 revertants/plate
- mutagenicity ratio (MR) ([1]; TA 102, −S9, 7.85 μmol/plate): 1.17
- number of revertants per plate ([1]; TA 102, −S9, 7.85 μmol/plate): 232 ± 13.1 revertants/plate
- mutagenicity ratio (MR) ([1]; TA 102, −S9, 15.7 μmol/plate): 1.06
- number of revertants per plate ([1]; TA 102, −S9, 15.7 μmol/plate): 210 ± 23 revertants/plate
- Average inhibition % (ear edema) [2]: 49.24%

SMILES: O=C1c2ccccc2C(=O)N1c1ccc(CCO[N+](=O)[O-])cc1 [Compound IE, 2-[4-(1,3-dioxo-1,3-dihydro-2H-isoindol-2-yl)phenyl]ethyl nitrate]
- mutagenicity ratio (MR) ([1]; TA 102, +S9, 0.12 μmol/plate): 0.9
- number of revertants per plate ([1]; TA 102, +S9, 0.12 μmol/plate): 335.3 ± 11 revertants/plate
- mutagenicity ratio (MR) ([1]; TA 102, +S9, 0.25 μmol/plate): 0.8
- number of revertants per plate ([1]; TA 102, +S9, 0.25 μmol/plate): 295.3 ± 28 revertants/plate
- mutagenicity ratio (MR) ([1]; TA 102, +S9, 0.5 μmol/plate): 1.09
- number of revertants per plate ([1]; TA 102, +S9, 0.5 μmol/plate): 406 ± 14.1 revertants/plate
- mutagenicity ratio (MR) ([1]; TA 102, +S9, 1 μmol/plate): 1.25
- number of revertants per plate ([1]; TA 102, +S9, 1 μmol/plate): 465 ± 10.6 revertants/plate
- mutagenicity ratio (MR) ([1]; TA 102, +S9, 2 μmol/plate): 1.2
- number of revertants per plate ([1]; TA 102, +S9, 2 μmol/plate): 447 ± 19.8 revertants/plate
- mutagenicity ratio (MR) ([1]; TA 102, −S9, 0.12 μmol/plate): 1.29
- number of revertants per plate ([1]; TA 102, −S9, 0.12 μmol/plate): 256 ± 6.9 revertants/plate
- mutagenicity ratio (MR) ([1]; TA 102, −S9, 0.25 μmol/plate): 1.32
- number of revertants per plate ([1]; TA 102, −S9, 0.25 μmol/plate): 262 ± 19.1 revertants/plate
- mutagenicity ratio (MR) ([1]; TA 102, −S9, 0.5 μmol/plate): 1.35
- number of revertants per plate ([1]; TA 102, −S9, 0.5 μmol/plate): 266.7 ± 18 revertants/plate
- mutagenicity ratio (MR) ([1]; TA 102, −S9, 1 μmol/plate): 1.34
- number of revertants per plate ([1]; TA 102, −S9, 1 μmol/plate): 265.7 ± 10 revertants/plate
- mutagenicity ratio (MR) ([1]; TA 102, −S9, 2 μmol/plate): 1.02
- number of revertants per plate ([1]; TA 102, −S9, 2 μmol/plate): 201 ± 4.7 revertants/plate

SMILES: O=C1c2ccccc2C(=O)N1c1ccc(CO[N+](=O)[O-])cc1 [ID, 4-(1,3-dioxo-1,3-dihydro-2H-isoindol-2-yl)benzyl nitrate]
- mutagenicity ratio (MR) ([1]; TA 102, +S9, 0.224 μmol/plate): 1.09
- number of revertants per plate ([1]; TA 102, +S9, 0.224 μmol/plate): 405.7 ± 13 revertants/plate
- mutagenicity ratio (MR) ([1]; TA 102, +S9, 0.488 μmol/plate): 1.16
- number of revertants per plate ([1]; TA 102, +S9, 0.488 μmol/plate): 434.7 ± 21 revertants/plate
- mutagenicity ratio (MR) ([1]; TA 102, +S9, 0.896 μmol/plate): 0.99
- number of revertants per plate ([1]; TA 102, +S9, 0.896 μmol/plate): 370 ± 6 revertants/plate
- mutagenicity ratio (MR) ([1]; TA 102, +S9, 1.8 μmol/plate): 1.06
- number of revertants per plate ([1]; TA 102, +S9, 1.8 μmol/plate): 397.3 ± 9.3 revertants/plate
- mutagenicity ratio (MR) ([1]; TA 102, +S9, 3.58 μmol/plate): 1.14
- number of revertants per plate ([1]; TA 102, +S9, 3.58 μmol/plate): 427.3 ± 5 revertants/plate
- mutagenicity ratio (MR) ([1]; TA 102, −S9, 0.224 μmol/plate): 1.31
- number of revertants per plate ([1]; TA 102, −S9, 0.224 μmol/plate): 340.3 ± 9.7 revertants/plate
- mutagenicity ratio (MR) ([1]; TA 102, −S9, 0.488 μmol/plate): 1.43
- number of revertants per plate ([1]; TA 102, −S9, 0.488 μmol/plate): 373.5 ± 21 revertants/plate
- mutagenicity ratio (MR) ([1]; TA 102, −S9, 0.896 μmol/plate): 1.5
- number of revertants per plate ([1]; TA 102, −S9, 0.896 μmol/plate): 391.2 ± 6.3 revertants/plate
- mutagenicity ratio (MR) ([1]; TA 102, −S9, 1.8 μmol/plate): 1.87
- number of revertants per plate ([1]; TA 102, −S9, 1.8 μmol/plate): 486.8 ± 20 revertants/plate
- mutagenicity ratio (MR) ([1]; TA 102, −S9, 3.58 μmol/plate): 1.62
- number of revertants per plate ([1]; TA 102, −S9, 3.58 μmol/plate): 420 ± 8.6 revertants/plate
- Average inhibition % (ear edema) [2]: 37.18%

SMILES: O=C1c2ccccc2C(=O)N1CO[N+](=O)[O-] [Compound IA, (1,3-dioxo-1,3-dihydro-2H-isoindol-2-yl)methyl nitrate]
- concentration above which toxicity is observed (reduction on the number of revertants per plate) ([1]; TA102 (+S9)): higher than 56 nmol
- mutagenicity ratio (MR) ([1]; TA 102, +S9, 7.25 nmol/plate): 1.4
- number of revertants per plate ([1]; TA 102, +S9, 7.25 nmol/plate): 298 ± 11.3 revertants/plate
- mutagenicity ratio (MR) ([1]; TA 102, +S9, 14.5 nmol/plate): 1.5
- number of revertants per plate ([1]; TA 102, +S9, 14.5 nmol/plate): 320.8 ± 17 revertants/plate
- mutagenicity ratio (MR) ([1]; TA 102, +S9, 29 nmol/plate): 1.8
- number of revertants per plate ([1]; TA 102, +S9, 29 nmol/plate): 385 ± 21.8 revertants/plate
- mutagenicity ratio (MR) ([1]; TA 102, +S9, 56 nmol/plate): 2.34
- number of revertants per plate ([1]; TA 102, +S9, 56 nmol/plate): 499 ± 8.9 revertants/plate
- mutagenicity ratio (MR) ([1]; TA 102, +S9, 112 nmol/plate): 1.64
- number of revertants per plate ([1]; TA 102, +S9, 112 nmol/plate): 351.2 ± 12 revertants/plate
- mutagenicity ratio (MR) ([1]; TA 102, −S9, 7.25 nmol/plate): 1.33
- number of revertants per plate ([1]; TA 102, −S9, 7.25 nmol/plate): 263.7 ± 15 revertants/plate
- mutagenicity ratio (MR) ([1]; TA 102, −S9, 14.5 nmol/plate): 1.26
- number of revertants per plate ([1]; TA 102, −S9, 14.5 nmol/plate): 249.7 ± 12 revertants/plate
- mutagenicity ratio (MR) ([1]; TA 102, −S9, 29 nmol/plate): 1.32
- number of revertants per plate ([1]; TA 102, −S9, 29 nmol/plate): 261.3 ± 20 revertants/plate
- mutagenicity ratio (MR) ([1]; TA 102, −S9, 56 nmol/plate): 0.77
- number of revertants per plate ([1]; TA 102, −S9, 56 nmol/plate): 153 ± 21 revertants/plate
- mutagenicity ratio (MR) ([1]; TA 102, −S9, 112 nmol/plate): 0.71
- number of revertants per plate ([1]; TA 102, −S9, 112 nmol/plate): 141 ± 18 revertants/plate
- Average inhibition % (ear edema) [2]: 53.75%
